Measurements: patent publication US20070122870A1, “Method for water testing and devices and kit of components for use in such a method” (priority 2003, published 2007)
“Also recorded” adds a separate entry of the source.

Key:
Pseudomonas = assay: ECOALERT deployment in controlled flow-through system, respiration (CTC fluorescence); assay type: cell-based; details: after 72 hours; 50 ppb BPH, 5 ppb TBDE; 7.5° C.
From the text: The experimental setup involved 16 tanks (4 animal species 4 exposure treatments) connected in a flow-through system with a direct intake of seawater from 80 m depth in the Stavanger fjord, outside the laboratory. For each one of the test animals, three tanks were connected to a chemostate system which maintained a constant concentration of each of the following chemicals: 50 ppb bisphenol A (BPH), 50 ppb diallyl phthalate (DAP), and 5 ppb tetrabromodiphenylether or PBDE-47 (TBDE). The forth tank had no chemical supply and was used as control. ECOALERT was deployed in the mussel tanks, one basket per tank. The water conditions in all the tanks were: 7.5° C. temperature, pH 7.78 and […].
Each deploying basket of ECOALERT was equipped with 3 dialysis tubes with Pseudomonas, 3 tubes filled with Vibrio natriegens and 3 dialysis tubes with medium-only without cells. Each dialysis tube was repeatedly sampled at 1, 24, 48 and 72 hours. Due to the low temperature of the water (7.5° C.) a low bacterial growth rate was expected and because of that the duration of the experiment was expanded to 72 hours. At every time-point, growth and respiration activity of the bacteria were measured as turbidity and CTC fluorescence respectively using the handheld CTC fluorometer/turbidimeter. […]

caged Pseudomonas sp. [1] = assay: Growth limitation (OD) of caged bacteria in dialysis tubes; assay type: cell-based
Description: On the night before the experiment, a number of 2-litre HDPE bottles, one bottle per toxicity treatment, were filled with water (3/4 seawater 1-μm filtered, 1/4 distilled water). The bottles were kept at 15° C. stirring at low speed.
The dialysis tubes, which are supplied soaked in sodium azide, were rinsed throughly, refilled with distilled water and UV-irradiated for 10 minutes to ensure sterility.
Also the night before, a fresh culture of bacteria was inoculated from the original stock in liquid diluted medium.
Before starting the toxicity assay, the bottles were spiked with the contaminant and buffered to pH 7.3. At the same time, a fresh volume of diluted medium was inoculated from the culture grown overnight and kept for ˜2 hours at 15° C. until the growth rate picked up again and OD540 approached 0.005.
Then, the dialysis tubes were emptied of the water and four of them topped up with the bacterial culture, plus one blank tube with medium-only (no bacteria), and placed into the bottle to start the assay. Each bottle could hold 5 dialysis tubes floating upright.
The stirring was kept low and at time intervals samples were removed from the tubes with sterile pipettes to measure the different bacterial indicators.
(ix) The growth dynamics of toxic cultures of caged Pseudomonas sp. were studied. The effect of toxicity on the growth of caged bacteria was studied in several assays where different concentrations of contaminants were added to the water of the tanks.

caged Pseudomonas sp. [2] = assay: Respiration indicator (CTC) in toxic caged cultures; assay type: cell-based; details: caged toxicity assays
From the text: Respiration. Respiration was estimated with the redox dye CTC (Polysciences) as values of fluorescent intracellular formazan.
(§1) (x) Bacterial sub-cellular indicators (DNA, respiration, membrane integrity and viability) were studied in toxic cultures of caged Pseudomonas sp.

V. natriegens [3] = assay: LIVE/DEAD BacLight membrane integrity, closed cultures; assay type: cell-based, Vibrio natriegens; details: closed culture
Description: (§2) (viii) Two ready-to-use commercial kits to assess cell viability (ProCheck™ Cell Viability Assay) and membrane integrity (LIVE/DEAD® BacLight™ Bacterial Viability Kit) were tested and adapted for using during ECOALERT experiments.
(§3) ProCheck™ is designed to measure the amount of viable, metabolising cells in a sample, and LIVE/DEAD® BacLight™ distinguish live and dead bacteria As a preliminary test, the two kits were tested in a volumetric series of mixtures of two bacterial types of V. natriegens: live, exponentially growing bacteria and dead bacteria killed by autoclaving an aliquot of the same culture. The colorimetric signal indicating cell viability (ProCheck™) and the fluorimetric signal indicating membrane integrity (LIVE/DEAD® BacLight™) increased linearly with the proportion of live bacteria in the mixture.

V. natriegens [4] = assay: ProCheck cell viability assay, closed cultures; assay type: cell-based, Vibrio natriegens; details: closed culture, compared with the non-toxic control
Description: as §2, §3

V. natriegens [5] = assay: Growth dynamics (optical density, cell concentration) in closed cultures; assay type: cell-based, Vibrio natriegens; details: closed culture; for bacterial growth (growth curve, growth rate, optical density, cell concentration): compared to the non-toxic control
From the text: (ii) Sterile, 12-ml capacity, screw-capped, clear polystyrene test tubes (Starstedt) were selected as the most appropriate closed system for use in ECOALERT experiments. These test tubes are ideal for short-term cell culturing where aeration is not critical. Also, the optical density of the culture can be read as often as desired, by simply inserting the same tube in a spectrophotometer, thus avoiding contamination risks and reducing analysis time.
(viii) The effect of a range of contaminants on growth dynamics and sub-cellular bioindicators in closed cultures of V. natriegens was studied:
(xi) The sensitivity of cultures of V. natriegens to a range of contaminants in closed laboratory experimental systems was studied at specified toxic concentrations and time scales.

V. natriegens [6] = assay: Respiration (CTC fluorescence) in closed cultures; assay type: cell-based, Vibrio natriegens; details: closed culture; for respiration: compared to the non-toxic control
Description: (vi) The application of the redox dye CTC (5-cyano-2,3-ditolyl tetrazolium chloride, Polysciences Europe) was developed to direct fluorimetric determination of respiration in bacterial suspensions. […] Traditionally, CTC has been used with flow cytometry and epifluorescence microscopy, combined with DAPI to counterstain total cells. However, its application to bacterioplankton remains controversial.
An exponentially growing culture of V. natrigens was incubated with the redox dye CTC following the standard procedure (2.0 mM final concentration, 4 h at 28° C.) and samples were taken every 30 minutes to count total cells and CTC+ cells in the microscope.
(§4) (viii) The effect of a range of contaminants on growth dynamics and sub-cellular bioindicators in closed cultures of V. natriegens was studied: […]

V. natriegens [7] = assay: DNA (thymidine uptake) and protein (leucine uptake) synthesis in closed cultures; assay type: cell-based, Vibrio natriegens; details: closed culture; for DNA synthesis / protein synthesis: compared to the control
Description: (iv) The application of the 3H-leucine method of Smith and Azam (Marine Microbial. Food Webs. 6(2), 107-114, 1992) was developed and also used with 3H-thymidine to estimate bacterial production. The synthesis of DNA (thymidine uptake) and protein (leucine uptake) was studied in V. natriegens closed cultures. In non-toxic cultures the uptake of both radiotracers by the bacteria reaches maximal values between 4 and 8 hours of the experiment, coinciding with the log-phase of the growth curve.
as §4

caged Pseudomonas sp. [8] = assay: Bacterial DNA indicator (PicoGreen) in toxic caged cultures; assay type: cell-based; details: caged toxicity assays
From the text: Bacterial DNA. To improve the detection of bacterial DNA in culture samples, the PicoGreen double-strand DNA (dsDNA) reagent (Molecular Probes) was used instead of DAPI. PicoGreen reagent is more sensitive to small changes in the DNA content of bacterial cultures, resulting in a good correlation with OD.
as §1

bacterial culture = assay: ECOALERT assay, ratio respiration/growth (CTC/TRB); assay type: cell-based; details: compared to the control
Description: Two bacterial endpoints were chosen based on the results from Example 2: growth and respiration. Growth is an endpoint at population level and is estimated by measuring in vivo optical density (OD) or turbidity (TRB). Respiration is an endpoint at subcellular level and is measured by the fluorescence emitted by actively respiring bacteria, using the CTC redox dye.
To assess OD, TRB and CTC as indicators of toxicity a series of ECOALERT assays were carried out on a wide range of chemical substances, with special attention to common pharmaceuticals but also including some contaminants cited in the OSPAR list for priority action (OSPAR 2000). The concentrations tested were based on toxicological and environmental levels, where this information was available.
Even when no clear effect could be observed in the CTC indicator alone, there was an advantage in using the bacterial indicators OD (or TRB) and CTC simultaneously. That was because it was possible to use the ratio respiration/growth, which is an estimator of the proportion of respiring or active bacteria in the population, as an indirect indicator of the health of the population.

[9] = compared with the non-toxic control

CC(C)(c1ccc(O)cc1)c1ccc(O)cc1 [BPH, bisphenol A]
bacterial respiration (Pseudomonas): clear negative effect; also recorded: had an impact on bacteria

[Cd] [Cd, cadmium]
growth limitation (caged Pseudomonas sp. [1]; 20 mg Cd/L, after 4 hours of exposure): 59%
growth limitation (caged Pseudomonas sp. [1]; lower Cd treatments): did not cause any clear limitation of bacterial growth
respiration as indicator of toxicity (caged Pseudomonas sp. [2]): most sensitive indicator of toxicity

[Cu] [Cu, copper]
membrane integrity (LIVE/DEAD BacLight) (V. natriegens [3]; [9]): damage of membranes
cell viability (ProCheck) (V. natriegens [4]): affecting cell viability
bacterial growth (growth curve, growth rate, optical density, cell concentration) (V. natriegens [5]): notable slow down of the growth curve; also recorded: very conspicuous and instantaneous reduction
bacterial growth (growth curve, growth rate, optical density, cell concentration) (V. natriegens [5]; listed as copper): nearly ceased
respiration (V. natriegens [6]): very conspicuous and instantaneous reduction
respiration (V. natriegens [6]; listed as copper): nearly ceased
DNA synthesis (V. natriegens [7]): nearly ceased
protein synthesis (V. natriegens [7]): nearly ceased
growth limitation (caged Pseudomonas sp. [1]; 20 mg/L, after 9 hours): 56%
effect on growth (caged Pseudomonas sp. [1]; additions under 0.1 mg/L): enhancing effect on growth
growth limitation (caged Pseudomonas sp. [1]; assays 1 (doses 0.001-10 mg Cu/L) and 2 (doses 0.02-20 mg Cu/L)): < 50%
DNA as indicator of toxicity (caged Pseudomonas sp. [8]): could not detect limitation

Cl[C@H]1[C@H](Cl)[C@@H](Cl)[C@@H](Cl)[C@H](Cl)[C@H]1Cl [Lindane]
bacterial growth (growth curve, growth rate, optical density, cell concentration) (V. natriegens [5]): transient, rather subtle stimulation; also recorded: transient, faint stimulation
respiration (V. natriegens [6]): transient, rather subtle stimulation; also recorded: transient, faint stimulation

[Ni] [Ni, nickel]
growth limitation (caged Pseudomonas sp. [1]; 5 mg/L, end of a 9-h assay): 51%
growth limitation (caged Pseudomonas sp. [1]; 20 mg/L, after 9 hours): 69%
effect on growth (caged Pseudomonas sp. [1]; below 0.5 mg/L): seemed to favour growth

Oc1c(Cl)c(Cl)c(Cl)c(Cl)c1Cl [PCP]
CTC/TRB ratio (bacterial culture): loss of respiring cells

c1ccc2c(c1)ccc1ccccc12 [Phenanthrene, phenanthrene]
bacterial growth (growth curve, growth rate, optical density, cell concentration) (V. natriegens [5]): did not affect bacterial growth significantly; also recorded: no major effect
respiration (V. natriegens [6]): No effect
protein synthesis (V. natriegens [7]): doubled; also recorded: small initial stimulation
DNA synthesis rates higher than control (V. natriegens [7]; on average): 30%

c1cc2ccc3cccc4ccc(c1)c2c34 [Pyrene, pyrene]
membrane integrity (LIVE/DEAD BacLight) (V. natriegens [3]; stationary phase): loss of membrane integrity
bacterial growth (growth curve, growth rate, optical density, cell concentration) (V. natriegens [5]): no other effect was observed
increase in respiration (V. natriegens [6]; average): 14%

CC(C)(c1cc(Br)c(O)c(Br)c1)c1cc(Br)c(O)c(Br)c1 [TBBA]
membrane integrity (LIVE/DEAD BacLight) (V. natriegens [3]; stationary phase): membrane damage
increase in cellular respiration (ratio respiration/optical density) (V. natriegens [6]; average): more than 90%
respiration (V. natriegens [6]): sudden and important increase in respiration; also recorded: notable increase of respiration

Brc1cccc(Oc2ccc(Br)c(Br)c2Br)c1 [TBDE, tetrabromodiphenylether]
bacterial respiration (Pseudomonas): possible positive effect

NC(=O)N1c2ccccc2C=Cc2ccccc21 [carbamazepine, reference compound]
CTC/TRB ratio (bacterial culture): initial positive effect

[Pb] [lead]
growth limitation (caged Pseudomonas sp. [1]; 2 mg/L, 4 hours): 52%
respiration as indicator of toxicity (caged Pseudomonas sp. [2]): most sensitive indicator of toxicity

[Zn] [zinc]
growth limitation (caged Pseudomonas sp. [1]; 50 mg/L, after 4 h): 51%
toxicity / effect on growth (caged Pseudomonas sp. [1]; first experiment, doses between 0.05-5 mg/L): No significant toxicity; also recorded: positive effect in most of the treatments
DNA as indicator of toxicity (caged Pseudomonas sp. [8]): sensitive indicator of toxicity

dodecylbenzensulfonic acid sodium salt [detergent]
membrane integrity (LIVE/DEAD BacLight) (V. natriegens [3]; [9]): progressive damage of cellular membranes with time
membrane integrity (LIVE/DEAD BacLight) (V. natriegens [3]; stationary phase): deleterious effect on membranes
size of bacteria (V. natriegens [5]; compared to control bacteria, sodium salt): progressively reduced their size; also recorded: reduces
bacterial growth (growth curve, growth rate, optical density, cell concentration) (V. natriegens [5]; sodium salt): increased over the control; also recorded: seems to enhance
reduction in bacterial numbers (V. natriegens [5]; instant): 10 fold
respiration (V. natriegens [6]; sodium salt): contrary to that of the non-toxic control; also recorded: seems to enhance
reduction in respiration (V. natriegens [6]; instant): 10 fold
DNA synthesis (V. natriegens [7]): increased slightly over the control
protein synthesis (V. natriegens [7]; sodium salt): inhibited but seems to recover after 48 h

mercury [Hg]
growth limitation (caged Pseudomonas sp. [1]; 2 mg/L, 4 hours): Up to 60%
respiration as indicator of toxicity (caged Pseudomonas sp. [2]): most sensitive indicator of toxicity
